Results from paper PMC8901636, “Preclinical studies of Flonoltinib Maleate, a novel JAK2/FLT3 inhibitor, in treatment of JAK2^V617F-induced myeloproliferative neoplasms” (Blood Cancer Journal, 2022).
Where two headings read alike, the source gives them in different places.

Assays:
[1] = PK and tissue distribution after repeated oral administration in Ba/F3-EPOR-JAK2^V617F tumor-bearing mice; format: in vivo; details: for Kp: spleen and plasma, po
Bioavailability [2] = details: rat, in vivo; rats; data not shown
Bioavailability [3] = details: dog, in vivo; dogs; data not shown
FLT3 = FLT3 (Homo sapiens, UniProt P36888); test: In vitro kinase assay
JAK3 = JAK3 (Homo sapiens, UniProt P52333); test: In vitro kinase assay
TYK2 = TYK2 (Homo sapiens, UniProt P29597); test: In vitro kinase assay
Ba/F3-JAK2^V617F cells = test: Ba/F3-JAK2^V617F disease model; details: for inhibition of the spleen growth: 22 days, figure prints it with a minus sign over Spleen Weight (mg); for median survival: vehicle 25 days
[4] = system: Ba/F3-EPOR-JAK2^V617F cells; test: Ba/F3-EPOR-JAK2^V617F malignancy mouse model; details: for spleen suppression rate: 16 days; for median survival time: vehicle 19 days
[5] = BALB/c nude, mouse, plasma, oral, 30 mg/kg, repeated, read-out: FM concentration, Plasma
[6] = BALB/c nude, mouse, spleen, oral, 30 mg/kg, repeated, read-out: FM concentration, Spleen
[7] = BALB/c nude, mouse, stomach, oral, 30 mg/kg, repeated, read-out: FM concentration, Stomach
[8] = BALB/c nude, mouse, Plasma, repeated oral 30 mg/kg
[9] = BALB/c nude, mouse, Spleen, repeated oral 30 mg/kg

Sequence of FLT3 (P36888 27-993): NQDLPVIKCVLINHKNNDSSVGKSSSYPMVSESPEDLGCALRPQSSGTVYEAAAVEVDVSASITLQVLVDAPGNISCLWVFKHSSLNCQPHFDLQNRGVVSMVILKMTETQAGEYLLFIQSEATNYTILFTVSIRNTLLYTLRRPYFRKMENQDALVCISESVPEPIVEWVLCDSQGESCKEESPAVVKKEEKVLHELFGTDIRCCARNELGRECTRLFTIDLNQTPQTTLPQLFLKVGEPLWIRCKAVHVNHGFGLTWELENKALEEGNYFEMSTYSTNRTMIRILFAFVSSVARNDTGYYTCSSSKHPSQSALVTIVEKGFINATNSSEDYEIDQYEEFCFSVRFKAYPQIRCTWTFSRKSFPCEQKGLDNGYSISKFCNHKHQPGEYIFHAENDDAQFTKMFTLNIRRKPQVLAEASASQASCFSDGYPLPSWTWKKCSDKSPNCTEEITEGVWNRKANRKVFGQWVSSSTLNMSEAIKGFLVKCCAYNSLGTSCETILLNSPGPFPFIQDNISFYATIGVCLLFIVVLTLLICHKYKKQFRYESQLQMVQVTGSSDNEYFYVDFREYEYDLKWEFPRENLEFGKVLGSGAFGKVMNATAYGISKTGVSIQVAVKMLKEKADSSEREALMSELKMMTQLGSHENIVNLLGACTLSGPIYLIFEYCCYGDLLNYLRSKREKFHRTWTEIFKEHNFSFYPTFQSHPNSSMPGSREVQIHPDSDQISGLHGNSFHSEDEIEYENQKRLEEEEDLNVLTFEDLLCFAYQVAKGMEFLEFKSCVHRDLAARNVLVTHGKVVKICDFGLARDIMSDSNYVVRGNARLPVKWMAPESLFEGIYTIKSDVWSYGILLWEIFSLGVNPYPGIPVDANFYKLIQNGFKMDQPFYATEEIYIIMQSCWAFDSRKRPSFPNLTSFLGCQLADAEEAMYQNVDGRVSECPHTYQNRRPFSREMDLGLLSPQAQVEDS
Sequence of JAK3 (P52333 whole entry): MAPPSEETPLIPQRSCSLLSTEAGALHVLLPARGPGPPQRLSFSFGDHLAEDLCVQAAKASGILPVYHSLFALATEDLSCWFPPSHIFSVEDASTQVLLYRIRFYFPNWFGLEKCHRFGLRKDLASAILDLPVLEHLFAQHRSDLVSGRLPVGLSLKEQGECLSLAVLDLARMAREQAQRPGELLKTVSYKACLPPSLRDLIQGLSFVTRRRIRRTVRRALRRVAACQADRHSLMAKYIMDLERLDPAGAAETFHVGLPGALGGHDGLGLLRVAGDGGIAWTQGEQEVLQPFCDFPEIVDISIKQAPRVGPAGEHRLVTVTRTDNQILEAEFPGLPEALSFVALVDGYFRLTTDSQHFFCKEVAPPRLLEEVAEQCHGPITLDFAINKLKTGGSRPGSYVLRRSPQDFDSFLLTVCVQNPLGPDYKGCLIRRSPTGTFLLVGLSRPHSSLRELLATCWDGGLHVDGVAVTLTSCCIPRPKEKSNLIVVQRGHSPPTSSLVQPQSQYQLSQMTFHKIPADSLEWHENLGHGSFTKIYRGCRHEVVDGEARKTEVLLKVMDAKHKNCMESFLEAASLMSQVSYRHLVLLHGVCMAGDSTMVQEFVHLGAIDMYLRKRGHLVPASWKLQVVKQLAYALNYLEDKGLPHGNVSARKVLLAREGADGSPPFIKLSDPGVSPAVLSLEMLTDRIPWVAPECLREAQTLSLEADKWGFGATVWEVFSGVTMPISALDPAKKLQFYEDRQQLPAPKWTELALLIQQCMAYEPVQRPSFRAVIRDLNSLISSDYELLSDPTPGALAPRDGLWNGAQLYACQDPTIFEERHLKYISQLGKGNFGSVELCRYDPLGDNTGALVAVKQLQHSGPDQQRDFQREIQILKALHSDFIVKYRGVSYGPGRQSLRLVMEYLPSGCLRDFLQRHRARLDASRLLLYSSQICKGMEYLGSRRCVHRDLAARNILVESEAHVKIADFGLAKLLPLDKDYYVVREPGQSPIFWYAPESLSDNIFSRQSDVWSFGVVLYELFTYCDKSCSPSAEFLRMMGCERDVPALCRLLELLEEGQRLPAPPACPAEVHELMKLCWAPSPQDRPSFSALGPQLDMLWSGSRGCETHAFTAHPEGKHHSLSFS
Sequence of TYK2 (P29597 whole entry): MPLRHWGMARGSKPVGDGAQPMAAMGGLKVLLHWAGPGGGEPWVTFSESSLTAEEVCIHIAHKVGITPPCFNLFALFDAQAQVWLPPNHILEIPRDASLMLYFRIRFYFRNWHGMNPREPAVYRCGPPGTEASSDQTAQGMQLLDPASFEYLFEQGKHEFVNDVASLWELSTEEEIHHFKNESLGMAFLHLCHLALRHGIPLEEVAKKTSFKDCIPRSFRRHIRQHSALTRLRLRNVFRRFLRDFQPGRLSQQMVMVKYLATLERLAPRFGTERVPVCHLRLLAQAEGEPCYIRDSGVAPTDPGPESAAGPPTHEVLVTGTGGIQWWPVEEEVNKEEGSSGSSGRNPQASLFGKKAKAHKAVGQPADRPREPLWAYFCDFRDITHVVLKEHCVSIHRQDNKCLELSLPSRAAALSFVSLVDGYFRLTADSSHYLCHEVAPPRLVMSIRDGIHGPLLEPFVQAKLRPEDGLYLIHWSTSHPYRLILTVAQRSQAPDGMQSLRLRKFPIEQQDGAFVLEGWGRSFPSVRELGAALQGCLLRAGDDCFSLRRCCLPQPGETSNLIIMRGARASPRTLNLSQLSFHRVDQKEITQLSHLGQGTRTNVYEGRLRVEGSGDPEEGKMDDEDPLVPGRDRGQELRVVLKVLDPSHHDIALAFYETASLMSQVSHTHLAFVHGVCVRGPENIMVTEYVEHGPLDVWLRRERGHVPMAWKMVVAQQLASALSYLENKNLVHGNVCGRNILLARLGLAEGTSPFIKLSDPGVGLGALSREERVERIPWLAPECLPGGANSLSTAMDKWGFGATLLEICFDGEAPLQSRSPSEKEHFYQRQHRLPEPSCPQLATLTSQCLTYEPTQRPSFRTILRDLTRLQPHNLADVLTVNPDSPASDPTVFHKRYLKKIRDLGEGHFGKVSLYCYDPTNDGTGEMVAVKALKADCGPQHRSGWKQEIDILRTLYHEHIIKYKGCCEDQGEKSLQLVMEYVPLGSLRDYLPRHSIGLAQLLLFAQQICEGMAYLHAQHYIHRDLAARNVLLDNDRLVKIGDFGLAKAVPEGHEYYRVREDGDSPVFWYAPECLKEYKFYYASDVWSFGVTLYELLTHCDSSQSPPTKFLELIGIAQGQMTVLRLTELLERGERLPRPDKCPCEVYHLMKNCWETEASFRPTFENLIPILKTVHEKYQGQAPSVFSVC

Work on Cc1cnc(Nc2ccc(N3CCC(N(C)CCO)CC3)c(F)c2)nc1-c1cnn(C(C)C)c1 [FM, 2-((1-(2-fluoro-4-((4-(1-isopropyl-1H-pyrazol-4-yl)-5-methylpyrimidin-2-yl)amino)phenyl)piperidin-4-yl)(methyl)amino)ethan-1-ol] yielded a concentration at 8 h ([1]; BALB/c nude, mouse, muscle, oral, 30 mg/kg, repeated, 8 h, read-out: FM concentration, Muscle) of 85 ± 73.1 ng/g, a concentration at 12 h ([1]; BALB/c nude, mouse, muscle, oral, 30 mg/kg, repeated, 12 h, read-out: FM concentration, Muscle) of 13.3 ± 6.38 ng/g and a concentration at 0 h [1, 5] of 5.6 ± 1.53 ng/mL. For the same compound, the concentration at 0.25 h [1, 5] was 628 ± 144 ng/mL, the concentration at 0.5 h [1, 5] was 889 ± 238 ng/mL and the concentration at 1 h [1, 5] was 1040 ± 375 ng/mL. For the same compound, the concentration at 2 h [1, 5] was 638 ± 168 ng/mL, the concentration at 4 h [1, 5] was 292 ± 101 ng/mL and the concentration at 8 h ([1]; BALB/c nude, mouse, plasma, oral, 30 mg/kg, repeated, 8 h, read-out: FM concentration, Plasma) was 106 ± 84.1 ng/mL. It also gave a concentration at 12 h ([1]; BALB/c nude, mouse, plasma, oral, 30 mg/kg, repeated, 12 h, read-out: FM concentration, Plasma) of 19.3 ± 12.9 ng/mL, a concentration at 24 h ([1]; BALB/c nude, mouse, plasma, oral, 30 mg/kg, repeated, 24 h, read-out: FM concentration, Plasma) of 5.56 ± 4.97 ng/mL and a Kp ([1]; BALB/c nude, mouse, 30 mg/kg, AUC(0–24h) of spleen higher than that of plasma, repeated oral 30 mg/kg) of 17.9. The Kp ([1]; BALB/c nude, mouse, 30 mg/kg, repeated oral 30 mg/kg, read-out: Cmax of spleen higher than that of plasma) was 14.1, the concentration at 0 h [1, 6] was 69 ± 44.8 ng/g and the concentration at 0.25 h [1, 6] was 3700 ± 1440 ng/g. It also gave a concentration at 0.5 h [1, 6] of 12100 ± 1910 ng/g, a concentration at 1 h [1, 6] of 17100 ± 6420 ng/g and a concentration at 2 h [1, 6] of 12200 ± 4390 ng/g. For the same compound, the concentration at 4 h [1, 6] was 6180 ± 1680 ng/g, the concentration at 8 h ([1]; BALB/c nude, mouse, spleen, oral, 30 mg/kg, repeated, 8 h after the last administration, read-out: FM concentration, Spleen) was 2150 ± 1390 ng/g and the concentration at 12 h ([1]; BALB/c nude, mouse, spleen, oral, 30 mg/kg, repeated, 12 h after the last administration, read-out: FM concentration, Spleen) was 391 ± 181 ng/g. For the same compound, the concentration at 0 h [1, 7] was 71.8 ± 44.3 ng/g, the concentration at 0.5 h [1, 7] was 33100 ± 22700 ng/g and the concentration at 2 h [1, 7] was 19300 ± 20700 ng/g. For the same compound, the concentration at 4 h [1, 7] was 11700 ± 8600 ng/g, the concentration at 8 h ([1]; BALB/c nude, mouse, stomach, oral, 30 mg/kg, repeated, 8 h, read-out: FM concentration, Stomach) was 3500 ± 5190 ng/g and the concentration at 12 h ([1]; BALB/c nude, mouse, stomach, oral, 30 mg/kg, repeated, 12 h, read-out: FM concentration, Stomach) was 2490 ± 2530 ng/g. The Cmax [1, 8] was 1280 ± 455 ng/mL, the half-life [1, 8] was 2.85 ± 1.14 h and the AUC(0-t) ([1]; BALB/c nude, mouse, Plasma, repeated oral 30 mg/kg, read-out: AUC0–24 h) was 3740 ± 704 ng·h/mL. For the same compound, the Cmax [1, 9] was 18100 ± 5680 ng/g, the half-life [1, 9] was 2.37 ± 0.58 h and the Cl ([1]; Plasma, repeated oral 30 mg/kg) was 137 ± 31.8 mL/min/kg. For the same compound, the Vdss ([1]; Plasma, repeated oral 30 mg/kg) was 32.81 ± 11.21 L/kg, the “AUC0–24 h” value ([1]; Spleen, repeated oral 30 mg/kg) was 67200.44 ± 11858.88 ng^.h/mL and the bioavailability (Bioavailability [2]) was roughly 60%. For the same compound, the bioavailability (Bioavailability [3]) was roughly 60%, the IC50 (FLT3) was 0.015 µM and the IC50 (JAK3) was 0.557 µM. For the same compound, the IC50 (TYK2) was 0.065 µM, the “inhibition of the spleen growth” value (Ba/F3-JAK2^V617F cells; 15 mg/kg bid p.o.) was 72.56% and the median survival (Ba/F3-JAK2^V617F cells; 15 mg/kg bid p.o.) was 30 days. For the same compound, the “inhibition of the spleen growth” value (Ba/F3-JAK2^V617F cells; 30 mg/kg bid p.o.) was 97.92%, the median survival (Ba/F3-JAK2^V617F cells; 30 mg/kg bid p.o.) was 31 days and the “body weight during treatment” value (Ba/F3-JAK2^V617F cells; any dose) was “no obvious body weight decrease”. For the same compound, the “spleen suppression rate” value ([4]; 15 mg/kg bid p.o.) was -35.67%, the median survival time ([4]; 15 mg/kg bid p.o.) was 22 days and the “spleen suppression rate” value ([4]; 30 mg/kg bid p.o.) was -79.79%. The median survival time ([4]; 30 mg/kg bid p.o.) was 25 days, the “spleen suppression rate” value ([4]; 45 mg/kg bid p.o.) was -101.08% and the median survival time ([4]; 45 mg/kg bid p.o.) was 25 days. For the same compound, the “visceral toxicity, tissues of treated mice” value ([4]; data not shown) was “did not cause obvious visceral toxicity”.
